Earlier results on 2 molecules are cited in patent publication US20250235469A1, “Synergistic combinations of Finasteride, Dutasteride, and Minoxidil” (priority 2024, published 2025).

The structures appear in SMILES notation.

Data set [1] deals with T1, 5α-reductase type 1 isoenzyme (Homo sapiens, UniProt P18405).
T1 sequence (P18405 1-259): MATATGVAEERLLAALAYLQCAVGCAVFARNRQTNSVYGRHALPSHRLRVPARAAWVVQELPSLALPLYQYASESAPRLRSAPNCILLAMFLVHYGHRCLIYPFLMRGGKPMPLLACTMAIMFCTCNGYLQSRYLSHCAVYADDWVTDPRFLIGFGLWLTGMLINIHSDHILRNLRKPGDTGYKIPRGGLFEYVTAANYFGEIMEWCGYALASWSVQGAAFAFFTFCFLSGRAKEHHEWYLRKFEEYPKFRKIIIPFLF

Data set [2] concerns hair count.
The subject of data set [3] is DHT levels. Conditions: 5 mg daily dose; 2004 study.
For data set [4] the following is noted: in vivo.
Data set [5] deals with T2, 5α-reductase type 2 isoenzyme (Homo sapiens, UniProt P31213).
T2 sequence (P31213 1-254): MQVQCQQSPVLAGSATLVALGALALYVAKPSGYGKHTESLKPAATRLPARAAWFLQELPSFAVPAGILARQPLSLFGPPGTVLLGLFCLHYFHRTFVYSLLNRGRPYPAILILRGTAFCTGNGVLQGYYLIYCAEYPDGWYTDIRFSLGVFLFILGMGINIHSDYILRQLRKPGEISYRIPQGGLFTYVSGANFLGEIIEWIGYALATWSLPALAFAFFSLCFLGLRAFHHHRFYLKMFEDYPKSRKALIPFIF

As to `C[C@]12C=CC(=O)N[C@@H]1CC[C@@H]1[C@@H]2CC[C@]2(C)[C@@H](C(=O)Nc3cc(C(F)(F)F)ccc3C(F)(F)F)CC[C@@H]12` [dutasteride, N-[2,5-bis(trifluoromethyl)phenyl]-3-oxo-4-aza-5α-androst-1-ene-17β-carboxamide], the “inhibition of type 1 isoenzyme of 5α-reductase” value in data set [1] is “inhibits both the types 1 and 2 isoenzymes”. Further, the “increase in hair count” value in data set [2] (men, 2006 study, dutasteride compared to finasteride) is recorded as “higher increase in hair count”. Moreover, the “reduced DHT levels” value in data set [3] is listed as 98.4%. The half-life entry in data set [4] is given as “several months”. The “inhibition of type 2 isoenzyme of 5α-reductase” value in data set [5] was “inhibits both the types 1 and 2 isoenzymes”.
With `CC(C)(C)NC(=O)[C@H]1CC[C@H]2[C@@H]3CC[C@H]4NC(=O)C=C[C@]4(C)[C@H]3CC[C@]12C` [finasteride, 17β-(N-tert-butylcarbamoyl)-4-aza-5α-androst-1-en-3-one], the “hair count and hair loss in users” value in data set [2] (studies of finasteride users) was “both an increase in hair count and a reduction in hair loss”. The “reduced DHT levels” value in data set [3] was 70.8%. Also, in data set [4], the half-life entry is “only a few hours”. Besides, the “inhibition of type 2 isoenzyme of 5α-reductase” value in data set [5] is recorded as “only inhibits the type 2 isoenzyme”.
